From ChEMBL document CHEMBL1153419 (J Med Chem, 2009)

Experiments:
[1] = molecular target: T1, Histamine H2 receptor (Homo sapiens, UniProt P25021); assay: Intrinsic activity at human H2 receptor expressed in insect Sf9 cells co-expressing GsalphaS fusion protein assessed as gamma[32P]GTP binding at 10 uM by liquid scintillation counting relative to histamine
[2] = molecular target: T2, Histamine H3 receptor (Homo sapiens, UniProt Q9Y5N1); assay: Intrinsic activity at human H3 receptor expressed in insect Sf9 cells co-expressing Gialpha2, Gbeta1gamma2 and RGS4 assessed as gamma[32P]GTP binding at 10 uM by liquid scintillation counting relative to histamine
[3] = molecular target: T2, Histamine H3 receptor; assay: Antagonist activity at human H3 receptor expressed in insect Sf9 cells co-expressing Gialpha2, Gbeta1gamma2 and RGS4 assessed as inhibition of histamine-induced gamma[32P]GTP binding by liquid scintillation counting
[4] = molecular target: T3, Histamine H4 receptor (Homo sapiens, UniProt Q9H3N8); assay: Antagonist activity at human H4 receptor expressed in insect Sf9 cells co-expressing RGS19 fusion protein and Gialpha2, Gbeta1gamma2 assessed as inhibition of histamine-induced gamma[32P]GTP binding by liquid scintillation counting
[5] = molecular target: T1, Histamine H2 receptor; assay: Agonist activity at human H2 receptor expressed in insect Sf9 cells co-expressing GsalphaS fusion protein assessed as gamma[32P]GTP binding by liquid scintillation counting
[6] = molecular target: T4, Histamine H1 receptor (Homo sapiens, UniProt P35367); assay: Intrinsic activity at human H1 receptor expressed in insect Sf9 cells co-expressing RGS4 assessed as gamma[32P]GTP binding at 10 uM by liquid scintillation counting relative to histamine
[7] = molecular target: T4, Histamine H1 receptor; assay: Agonist activity at human H1 receptor expressed in insect Sf9 cells co-expressing RGS4 assessed as gamma[32P]GTP binding by liquid scintillation counting
[8] = molecular target: T3, Histamine H4 receptor; assay: Intrinsic activity at human H4 receptor expressed in insect Sf9 cells co-expressing RGS19 fusion protein and Gialpha2, Gbeta1gamma2 assessed as gamma[32P]GTP binding at 10 uM by liquid scintillation counting relative to histamine
[9] = molecular target: Histamine H2 receptor (Cavia porcellus) (UniProt P47747); assay: Agonist activity at histamine H2 receptor in guinea pig atrium assessed as maximal increase in heart rate relative to histamine; assay type: functional, tissue-based; conditions: Cardiac atrium
[10] = molecular target: T4, Histamine H1 receptor; assay: Antagonist activity at human H1 receptor expressed in insect Sf9 cells co-expressing RGS4 assessed as inhibition of histamine-induced gamma[32P]GTP binding by liquid scintillation counting
[11] = molecular target: T5, Histamine H2 receptor (Cavia porcellus, UniProt P47747); assay: Antagonist activity at histamine H2 receptor in guinea pig right atrium assessed as inhibition of histamine-induced increase in heart rate; assay type: functional, tissue-based, Cardiac atrium; conditions: read-out: pA2 (converted)
[12] = molecular target: T3, Histamine H4 receptor; assay: Agonist activity at human H4 receptor expressed in insect Sf9 cells co-expressing RGS19 fusion protein and Gialpha2, Gbeta1gamma2 assessed as gamma[32P]GTP binding by liquid scintillation counting
[13] = molecular target: T5, Histamine H2 receptor; assay: Agonist activity at histamine H2 receptor in guinea pig atrium assessed as increase in heart rate; assay type: functional, tissue-based, Cardiac atrium
[14] = molecular target: Histamine H1 receptor (Cavia porcellus, UniProt P31389); assay: Antagonist activity at histamine H1 receptor in guinea pig ileum assessed as inhibition of histamine-induced contractions; assay type: functional, tissue-based; conditions: read-out: pA2 (converted)
[15] = molecular target: T2, Histamine H3 receptor; assay: Agonist activity at human H3 receptor expressed in insect Sf9 cells co-expressing Gialpha2, Gbeta1gamma2 and RGS4 assessed as gamma[32P]GTP binding by liquid scintillation counting
[16] = organism: Homo sapiens; assay: Selectivity ratio of EC50 for human H1R to EC50 for human H4R
[17] = organism: Homo sapiens; assay: Selectivity ratio of EC50 for human H2R to EC50 for human H4R

T4 sequence (P35367 whole entry): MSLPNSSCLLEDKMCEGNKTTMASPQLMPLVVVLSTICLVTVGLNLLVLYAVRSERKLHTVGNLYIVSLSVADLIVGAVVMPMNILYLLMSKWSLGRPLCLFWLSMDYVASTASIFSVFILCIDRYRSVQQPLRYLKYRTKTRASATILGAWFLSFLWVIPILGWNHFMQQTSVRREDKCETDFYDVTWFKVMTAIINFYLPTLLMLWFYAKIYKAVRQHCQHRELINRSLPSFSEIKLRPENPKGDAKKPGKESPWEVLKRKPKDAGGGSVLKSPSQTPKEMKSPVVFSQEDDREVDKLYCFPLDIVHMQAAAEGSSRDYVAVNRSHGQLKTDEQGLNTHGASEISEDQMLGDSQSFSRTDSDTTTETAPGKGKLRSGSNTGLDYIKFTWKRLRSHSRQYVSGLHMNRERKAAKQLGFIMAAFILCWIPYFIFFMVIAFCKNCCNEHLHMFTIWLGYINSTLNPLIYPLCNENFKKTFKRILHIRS
Sequence of Histamine H1 receptor (Cavia porcellus, UniProt P31389) (P31389 whole entry): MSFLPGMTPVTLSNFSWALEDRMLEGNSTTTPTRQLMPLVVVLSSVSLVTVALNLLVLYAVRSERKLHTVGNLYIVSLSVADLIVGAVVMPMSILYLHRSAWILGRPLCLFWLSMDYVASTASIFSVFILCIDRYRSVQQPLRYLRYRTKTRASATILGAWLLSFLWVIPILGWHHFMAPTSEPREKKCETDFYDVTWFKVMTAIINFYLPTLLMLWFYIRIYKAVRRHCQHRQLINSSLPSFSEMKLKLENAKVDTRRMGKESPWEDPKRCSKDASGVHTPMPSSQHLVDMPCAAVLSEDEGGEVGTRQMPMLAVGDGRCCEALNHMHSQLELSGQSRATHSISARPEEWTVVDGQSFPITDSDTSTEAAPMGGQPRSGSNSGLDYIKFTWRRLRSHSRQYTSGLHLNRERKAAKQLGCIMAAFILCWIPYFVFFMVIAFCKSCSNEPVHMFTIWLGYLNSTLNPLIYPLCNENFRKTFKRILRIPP
T1 sequence (P25021 whole entry, the tested form may be a part): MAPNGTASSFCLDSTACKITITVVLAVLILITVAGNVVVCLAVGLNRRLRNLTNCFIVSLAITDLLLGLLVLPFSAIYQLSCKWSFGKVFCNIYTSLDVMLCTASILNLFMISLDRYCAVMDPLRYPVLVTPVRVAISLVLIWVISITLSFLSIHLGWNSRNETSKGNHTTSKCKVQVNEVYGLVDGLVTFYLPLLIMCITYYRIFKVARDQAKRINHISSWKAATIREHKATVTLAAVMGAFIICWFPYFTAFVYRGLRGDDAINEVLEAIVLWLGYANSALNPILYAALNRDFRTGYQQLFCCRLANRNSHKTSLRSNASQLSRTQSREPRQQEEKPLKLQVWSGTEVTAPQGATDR
T5 sequence (P47747 whole entry, the tested form may be a part): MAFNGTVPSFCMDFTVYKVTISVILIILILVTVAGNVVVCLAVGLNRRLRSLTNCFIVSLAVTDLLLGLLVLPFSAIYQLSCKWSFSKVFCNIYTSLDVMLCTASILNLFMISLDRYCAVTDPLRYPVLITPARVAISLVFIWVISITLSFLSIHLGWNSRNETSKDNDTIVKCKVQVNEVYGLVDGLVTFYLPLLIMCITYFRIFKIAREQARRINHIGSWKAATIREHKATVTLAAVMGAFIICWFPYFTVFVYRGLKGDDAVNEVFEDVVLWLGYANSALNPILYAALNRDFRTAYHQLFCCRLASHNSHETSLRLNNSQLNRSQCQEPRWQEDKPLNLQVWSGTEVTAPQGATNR
Sequence of Histamine H2 receptor (Cavia porcellus) (P47747 whole entry): as the sequence (P47747 whole entry, the tested form may be a part) above
T2 sequence (Q9Y5N1 whole entry): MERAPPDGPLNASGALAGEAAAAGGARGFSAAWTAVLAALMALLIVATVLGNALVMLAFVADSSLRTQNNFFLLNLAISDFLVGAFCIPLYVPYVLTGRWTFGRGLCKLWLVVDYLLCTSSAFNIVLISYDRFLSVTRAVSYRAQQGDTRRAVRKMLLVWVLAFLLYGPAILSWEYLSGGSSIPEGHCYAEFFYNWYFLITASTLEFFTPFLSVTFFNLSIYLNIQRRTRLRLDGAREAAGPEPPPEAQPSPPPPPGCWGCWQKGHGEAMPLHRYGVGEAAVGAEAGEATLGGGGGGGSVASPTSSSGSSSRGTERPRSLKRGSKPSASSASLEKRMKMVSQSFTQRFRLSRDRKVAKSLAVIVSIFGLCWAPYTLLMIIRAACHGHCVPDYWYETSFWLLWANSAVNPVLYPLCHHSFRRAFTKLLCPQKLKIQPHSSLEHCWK
T3 sequence (Q9H3N8 whole entry, the tested form may be a part): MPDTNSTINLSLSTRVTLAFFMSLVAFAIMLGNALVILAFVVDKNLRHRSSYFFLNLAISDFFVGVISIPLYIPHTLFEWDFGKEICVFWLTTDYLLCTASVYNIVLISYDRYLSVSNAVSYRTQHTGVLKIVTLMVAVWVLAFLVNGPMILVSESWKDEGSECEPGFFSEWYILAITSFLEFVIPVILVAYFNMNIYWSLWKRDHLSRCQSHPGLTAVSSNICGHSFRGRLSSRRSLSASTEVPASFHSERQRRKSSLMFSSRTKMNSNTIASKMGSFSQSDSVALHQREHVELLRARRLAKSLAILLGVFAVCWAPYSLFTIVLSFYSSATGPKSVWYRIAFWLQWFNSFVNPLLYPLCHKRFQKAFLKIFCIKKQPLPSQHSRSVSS

## N/C(=N\C(=O)c1cc2ccccc2[nH]1)NCCCc1c[nH]cn1
[1]
  Activity: 0.87
[2]
  Activity: -0.38
[3]
  pKb: 6.96
[4]
  pKb: 6.43
[5]
  EC50: 288 nM
[6]
  Activity: 0.42
[7]
  EC50: 1700 nM
[8]
  Activity: 0.21

## CC(CC(=O)/N=C(\N)NCCCc1c[nH]cn1)c1ccccc1 (stereo not drawn)
[1]
  Activity: 0.87
[9]
  Activity: 0.99
[10]
  pKb: < 4.9
[2]
  Activity: 0.24
[6]
  Activity: 0.35
[8]
  Activity: 0.84

## S=C(NC1CCCCC1)N1CCC(c2cnc[nH]2)CC1
[2]
  Activity: -0.71
[8]
  Activity: -0.95

## N=C(N)NCCCc1c[nH]cn1
[1]
  Activity: 0.66
[10]
  pKb: < 5
[2]
  Activity: 0.69
[8]
  Activity: 0.83

## CCCC(=O)/N=C(\N)NCCCc1c[nH]cn1
[11]
  Kb: 407 nM
[1]
  Activity: 0.77
[12]
  EC50: 2.57 nM
[9]
  Activity: 0.97
[2]
  Activity: 0.37
[13]
  EC50: 186 nM
[14]
  Kb: 3550 nM
[5]
  EC50: 141 nM
[6]
  Activity: 0.33
[7]
  EC50: 2190 nM
[8]
  Activity: 0.96
[15]
  EC50: 1.58 nM

## CC(=O)NC(N)=NCCCc1cnc[nH]1
[11]
  Kb: 363 nM
[12]
  EC50: 4.9 nM
[13]
  EC50: 813 nM
[14]
  Kb: 8510 nM
[5]
  EC50: 724 nM
[7]
  EC50: 12900 nM
[15]
  EC50: 3.63 nM

## CN(CCC(=O)/N=C(\N)NCCCc1c[nH]cn1)C(=O)c1cc2ccccc2[nH]1
[1]
  Activity: 0.68
[12]
  EC50: 151 nM
[9]
  Activity: 0.84
[2]
  Activity: 0.3
[13]
  EC50: 3550 nM
[14]
  Kb: 3020 nM
[5]
  EC50: 347 nM
[8]
  Activity: 0.52
[15]
  EC50: 11 nM

## N/C(=N\C(=O)Cc1c[nH]c2ccccc12)NCCCc1c[nH]cn1
[1]
  Activity: 0.81
[12]
  EC50: 19.1 nM
[9]
  Activity: 0.91
[10]
  pKb: 5.68
[2]
  Activity: -0.15
[13]
  EC50: 182 nM
[14]
  Kb: 38.9 nM
[3]
  pKb: 7.51
[5]
  EC50: 36.3 nM
[6]
  Activity: 0
[8]
  Activity: 0.7

## CC(CC(=O)NC(N)=NCCCc1cnc[nH]1)c1ccccc1 (stereo not drawn)
[15]
  EC50: 2.51 nM

## N/C(=N\C(=O)CCCNC(=O)c1cc2ccccc2[nH]1)NCCCc1c[nH]cn1
[1]
  Activity: 0.51
[9]
  Activity: 0.9
[10]
  pKb: 4.96
[2]
  Activity: -0.18
[13]
  EC50: 490 nM
[14]
  Kb: 741 nM
[3]
  pKb: 7.17
[4]
  pKb: 7.02
[5]
  EC50: 30.2 nM
[6]
  Activity: 0.16
[8]
  Activity: -0.06

## CC(C)C(=O)/N=C(\N)NCCCc1c[nH]cn1
[11]
  Kb: 302 nM
[1]
  Activity: 0.86
[12]
  EC50: 3.72 nM
[9]
  Activity: 0.98
[2]
  Activity: 0.26
[13]
  EC50: 110 nM
[14]
  Kb: 7760 nM
[5]
  EC50: 110 nM
[6]
  Activity: 0.35
[7]
  EC50: 2570 nM
[8]
  Activity: 0.94
[15]
  EC50: 1.41 nM

## N/C(=N\C(=O)CNC(=O)c1cc2ccccc2[nH]1)NCCCc1c[nH]cn1
[1]
  Activity: 0.51
[12]
  EC50: 28.2 nM
[2]
  Activity: 0.45
[5]
  EC50: 955 nM
[8]
  Activity: 0.71
[15]
  EC50: 15.8 nM

## CC(=O)/N=C(\N)NCCCc1c[nH]cn1
[1]
  Activity: 0.76
[9]
  Activity: 0.83
[2]
  Activity: 0.27
[16]
  Selectivity ratio: > 1000
[17]
  Selectivity ratio: > 100
[6]
  Activity: 0.24
[8]
  Activity: 1

## N/C(=N\C(=O)CCNC(=O)c1cc2ccccc2[nH]1)NCCCc1c[nH]cn1
[1]
  Activity: 0.33
[12]
  EC50: 33.1 nM
[2]
  Activity: 0.1
[3]
  pKb: 7.17
[5]
  EC50: 83.2 nM
[8]
  Activity: 0.37

## CCC(=O)/N=C(\N)NCCCc1c[nH]cn1
[11]
  Kb: 347 nM
[1]
  Activity: 0.83
[9]
  Activity: 0.94
[2]
  Activity: 0.39
[14]
  Kb: 5130 nM
[5]
  EC50: 372 nM
[6]
  Activity: 0.3
[7]
  EC50: 3470 nM
[15]
  EC50: 1.58 nM

## N/C(=N\C(=O)CCc1c[nH]c2ccccc12)NCCCc1c[nH]cn1
[11]
  Kb: 437 nM
[1]
  Activity: 0.77
[12]
  EC50: 7.08 nM
[9]
  Activity: 1.01
[10]
  pKb: 5.4
[2]
  Activity: -0.18
[13]
  EC50: 77.6 nM
[14]
  Kb: 398 nM
[3]
  pKb: 7.57
[5]
  EC50: 81.3 nM
[6]
  Activity: 0.09
[8]
  Activity: 0.45
